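Test compounds were applied to cells in 96-well plates for 48 hours at 5 doses. TGI: total growth inhibition.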

The TGI is the concentration giving total growth inhibition. A higher TGI goes with less potent growth arrest.

Experiment in all cases: DTP human tumour cell line panel, 48 h
For experiment [1], the system named is A549 NSCLC.
The subject of experiment [2] is OVCAR-4 ovarian.
The subject of experiment [3] is UACC-62 melanoma.
Experiment [4] has as its system NCI-H522 lung.
The subject of experiment [5] is DU-145 prostate.
Experiment [6] has as its system OVCAR-3 ovarian.
Experiment [7] relates to HCT-15 colon.
For experiment [8], the system named is TK-10 renal.
The subject of experiment [9] is SF-539 CNS.
In experiment [10] the test system is SK-OV-3 ovarian.
Experiment [11] deals with NCI-H460 lung.
Experiment [12] has as its system OVCAR-8 ovarian.
For experiment [13], the system named is KM12 colon.
In experiment [14] the test system is IGROV1 ovarian.
For experiment [15], the system named is LOX IMVI melanoma.
The subject of experiment [16] is UACC-257 melanoma.

Consider `CNC(=O)CCNC(=O)CCC(=O)N(C)C`, for which the TGI in experiment [1], in [2], in [3], in [4], in experiment [5] and in experiment [6] was more than 100 µM in each case. Further, the TGI in experiment [7], in experiment [8], in [9], in experiment [10], in experiment [11] and in experiment [12] was more than 100 µM in each case. This molecule returned a TGI in experiment [13] of more than 100 µM.

As for `CCN(CC)c1ccc2c(c1)OC(=O)C(c1nnc(-c3ccc([N+](=O)[O-])cc3)o1)C2` (stereo not drawn), the TGI in experiment [1], in experiment [14], in experiment [2], in experiment [3], in experiment [4] and in experiment [5] was more than 100 µM in each case. For the same molecule, the TGI in experiment [6], in experiment [7], in [8], in [15], in experiment [10] and in experiment [11] was more than 100 µM each time. Also, the TGI in [16], in [12] and in experiment [13] was more than 100 µM throughout.

For `NCCC(=O)N[C@H](Cc1cc(O)c(O)c(SCC(NC(=O)CC[C@H](N)C(=O)O)C(=O)NCC(=O)O)c1)C(=O)O` (stereo partly drawn), the TGI in experiment [1], in experiment [14], in experiment [2], in experiment [3], in experiment [4] and in experiment [5] was more than 50 µM throughout. Moreover, the TGI in [7], in [8], in [10], in experiment [11], in [16] and in experiment [13] was more than 50 µM throughout.

Consider `O=c1[nH]c(=O)n(C2CC(O)C(CO)O2)cc1OCCc1ccccc1` (stereo not drawn), for which the TGI in [1], in experiment [14], in [2], in [3], in experiment [4] and in experiment [5] was more than 100 µM in each case. For the same molecule, the TGI in experiment [6], in [7], in [8], in [15], in experiment [10] and in experiment [16] was more than 100 µM throughout. The TGI in [12] and in experiment [13] was more than 100 µM in each case.

As for `N=C(N)C1CN(CCc2cnc[nH]2)C(=O)NC1=O` (stereo not drawn), the TGI in [1], in [14], in experiment [2], in experiment [3], in experiment [4] and in [5] was more than 100 µM throughout. Moreover, the TGI in experiment [6], in experiment [7], in [8], in experiment [9], in experiment [10] and in [11] was more than 100 µM throughout. In addition, the TGI in [16], in experiment [12] and in [13] was more than 100 µM each time.

`N#Cc1nc(CSCc2ccccc2)oc1N`: the concentration for total growth inhibition (TGI) in experiment [1], in experiment [14], in experiment [2], in [3], in experiment [4] and in [5] was more than 100 µM in each case. For the same molecule, the TGI in experiment [6], in experiment [7], in experiment [8], in experiment [9], in [10] and in experiment [11] was more than 100 µM each time. The TGI in experiment [16], in experiment [12] and in [13] was more than 100 µM throughout.

Turning to `CO[C@H]1O[C@@H]2CO[C@@H](c3ccccc3)O[C@H]2[C@@H]2CC=CCC[C@]12O`, the TGI in [1] was more than 100 µM; in experiment [14] it was more than 100 µM; in experiment [2], more than 100 µM; in [3] it was more than 100 µM; in experiment [4] it was 31 µM; in [5], more than 100 µM. Besides, the TGI in [6], in [7], in [8], in [15], in experiment [10] and in experiment [11] was more than 100 µM each time. For the same molecule, the TGI in experiment [16], in experiment [12] and in [13] was more than 100 µM in each case.

On to `NC(=O)c1cc(-c2ccc(-n3ccnc3)cc2)n[nH]c1=O`, for which the TGI in experiment [1], in experiment [14], in experiment [2], in [3], in [4] and in experiment [5] was more than 100 µM throughout. Moreover, the TGI in experiment [7], in experiment [8], in experiment [9], in [10], in [11] and in experiment [16] was more than 100 µM throughout. For the same molecule, in experiment [12], the TGI is more than 100 µM.

Turning to `O=C1CSC(/C=C/c2ccccc2)N1c1ccc(-c2ccc(-n3c(-c4ccccc4)nc4ccccc4c3=O)cc2)cc1` (stereo not drawn), the TGI in [1] was 68 µM; in experiment [14], 75.6 µM; in [2] it was 63 µM; in [3] it was more than 100 µM; in experiment [4], 42.9 µM; in [5] it was more than 100 µM. The TGI in [6] is 84.6 µM; in [7], 66.8 µM; in experiment [8] it was more than 100 µM; in [15], 32.7 µM; in experiment [10], more than 100 µM; in experiment [11], more than 100 µM. Moreover, the TGI in experiment [16] worked out at 93.1 µM; in experiment [12] it was 92.7 µM; in [13], 35.8 µM.

With `CCOC(=O)[C@@H]1C[C@H]1c1ccc(O)c(O)c1`, the TGI is more than 100 µM in experiment [1]; more than 100 µM in experiment [14]; 34.9 µM in experiment [3]; 47.2 µM in [4]; more than 100 µM in [5]; more than 100 µM in experiment [6]. In addition, the TGI in experiment [7], in [8], in experiment [9], in experiment [10], in experiment [11] and in experiment [16] was more than 100 µM in each case. Also, the TGI in experiment [12] and in experiment [13] was more than 100 µM each time.

In the case of `O=c1[nH]c(=O)n(C2CC(O)C(CO)O2)cc1NN=NCCc1ccccc1` (stereo not drawn), the TGI in experiment [1], in experiment [14], in [2], in experiment [3], in [4] and in experiment [5] was more than 100 µM in each case. The TGI in experiment [6], in [7], in experiment [8], in experiment [15], in experiment [10] and in experiment [11] was more than 100 µM each time. Moreover, the TGI in [16], in [12] and in experiment [13] was more than 100 µM in each case.

Consider `CCN(CC)CCNc1ccc2ncn3c4c(OC)ccc(OC)c4c(=O)c1c23`, for which the TGI in experiment [1] is 54.4 µM; in experiment [3], 57.5 µM; in experiment [4], 44.2 µM; in experiment [5], 25.7 µM; in [6] it was more than 100 µM; in [7], 38.5 µM. In addition, the TGI in experiment [8] was more than 100 µM; in experiment [9], 44.1 µM; in [10], 44.9 µM; in experiment [11], 31.3 µM; in experiment [16], more than 100 µM; in experiment [12], 68.5 µM. Also, the TGI in [13] was 22.6 µM.

As for `Oc1ccc(Cl)cc1-c1[nH]c(=S)nc(-c2ccccc2)c1Cl`, the TGI is more than 100 µM in [1]; more than 100 µM in experiment [14]; more than 100 µM in experiment [2]; more than 31.6 µM in [4]; more than 100 µM in [5]; more than 100 µM in [6]. In addition, the TGI in experiment [7], in experiment [8], in experiment [15], in experiment [10], in experiment [11] and in experiment [16] was more than 100 µM throughout. The TGI in experiment [12] and in [13] was more than 100 µM in each case.

Consider `C=CCN1C(=O)CC1N(CC=C)S(=O)(=O)c1ccc(C)cc1` (stereo not drawn), for which the TGI in [1], in experiment [14], in [2], in experiment [3], in experiment [4] and in [5] was more than 100 µM throughout. The TGI in experiment [6], in experiment [7], in [8], in experiment [15], in experiment [10] and in [11] was more than 100 µM each time. Besides, the TGI in experiment [16], in [12] and in experiment [13] was more than 100 µM each time.

Take `C[C@]12CCC3c4ccc(O)cc4CC[C@H]3C1CC(=O)N(N)C2=O` (stereo partly drawn): the TGI in experiment [1], in [14], in experiment [2], in [3], in [4] and in experiment [5] was more than 100 µM each time. Besides, the TGI in experiment [6], in experiment [8], in [9], in experiment [10], in experiment [11] and in [16] was more than 100 µM throughout. Besides, the total growth inhibition concentration (TGI) in [12] and in experiment [13] was more than 100 µM each time.

As for `O=C(O)CN=C(C(=NCC(=O)O)c1ccccc1)c1ccccc1`, the TGI in experiment [1], in experiment [2], in experiment [3], in experiment [4], in [5] and in [6] was more than 100 µM in each case. For the same molecule, the TGI in [7], in [8], in experiment [15], in [10], in experiment [11] and in experiment [16] was more than 100 µM throughout. Moreover, the TGI in experiment [12] and in [13] was more than 100 µM throughout.

As to `CC(NC(=O)C(OC(=O)C(C)NC(=O)OC(C)(C)C)C(C)C)C(=O)OC(C(=O)O)C(C)C` (stereo not drawn), the TGI in [1], in [14], in [3], in experiment [4], in [5] and in [6] was more than 100 µM each time. Besides, the TGI in experiment [7], in experiment [8], in experiment [9], in experiment [10], in [11] and in [16] was more than 100 µM in each case. The TGI in experiment [12] and in experiment [13] was more than 100 µM each time.

For `Cc1cccc(-n2c(C)nc3ccc(NC4OC(CO)C(O)C(O)C4O)cc3c2=O)c1` (stereo not drawn), the TGI in experiment [14], in experiment [2], in [3], in experiment [4], in experiment [5] and in experiment [6] was more than 100 µM each time. For the same molecule, the TGI in [7], in experiment [8], in experiment [15], in [11], in [16] and in [12] was more than 100 µM each time. This molecule showed a TGI in experiment [13] of more than 100 µM.

Turning to `O=C(c1ccco1)C1CC(c2ccc3ccccc3c2O)=NN1` (stereo not drawn), the TGI in experiment [1], in experiment [14], in [2], in experiment [3], in experiment [4] and in [5] was more than 100 µM each time. In addition, the TGI in experiment [6], in [7], in experiment [8], in experiment [9], in [10] and in experiment [11] was more than 100 µM each time. Besides, the TGI in experiment [16], in experiment [12] and in experiment [13] was more than 100 µM throughout.
